Data from publication PMC6276031 (International Journal of Neuropsychopharmacology, 2018).

Tests used:
[1] = target: T1, dopamine D2 receptor (D2R, D2L long isoform) (Homo sapiens, UniProt P14416); experiment: GIRK1/[…] current activation in Xenopus oocytes; type: cell-based
[2] = target: dopamine D3 receptor (D3R) (Homo sapiens, UniProt P35462); experiment: GIRK1/[…] current activation in Xenopus oocytes expressing D3R; type: cell-based
[3] = target: T1, dopamine D2 receptor (D2R, D2L long isoform); experiment: cell-based; details: read-out: % of the mean response to 1 μM dopamine

T1 sequence (P14416 whole entry, canonical isoform): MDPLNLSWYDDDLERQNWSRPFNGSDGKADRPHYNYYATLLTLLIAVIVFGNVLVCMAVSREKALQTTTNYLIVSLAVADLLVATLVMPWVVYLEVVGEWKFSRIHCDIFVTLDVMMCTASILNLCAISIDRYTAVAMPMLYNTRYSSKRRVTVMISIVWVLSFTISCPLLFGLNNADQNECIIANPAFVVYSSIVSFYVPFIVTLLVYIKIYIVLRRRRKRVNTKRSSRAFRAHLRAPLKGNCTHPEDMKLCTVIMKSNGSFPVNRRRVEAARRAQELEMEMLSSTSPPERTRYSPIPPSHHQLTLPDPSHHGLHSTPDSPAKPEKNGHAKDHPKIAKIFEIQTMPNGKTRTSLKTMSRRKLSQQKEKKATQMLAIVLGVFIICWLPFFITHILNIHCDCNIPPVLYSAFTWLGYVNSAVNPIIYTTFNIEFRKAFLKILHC
Sequence of dopamine D3 receptor (D3R) (P35462 whole entry, canonical isoform): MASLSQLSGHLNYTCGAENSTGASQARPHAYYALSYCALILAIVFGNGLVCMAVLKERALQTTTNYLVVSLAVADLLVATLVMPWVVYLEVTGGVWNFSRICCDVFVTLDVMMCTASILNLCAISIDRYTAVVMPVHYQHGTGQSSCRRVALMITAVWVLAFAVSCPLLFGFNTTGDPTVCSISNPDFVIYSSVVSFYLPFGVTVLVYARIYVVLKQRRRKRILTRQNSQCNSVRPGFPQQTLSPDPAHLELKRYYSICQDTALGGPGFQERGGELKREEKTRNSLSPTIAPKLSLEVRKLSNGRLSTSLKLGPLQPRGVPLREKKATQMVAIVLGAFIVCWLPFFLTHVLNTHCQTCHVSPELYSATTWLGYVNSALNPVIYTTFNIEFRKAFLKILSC

EC50 [1] [nM] | EC50 [2] [nM] | Structure (SMILES) | Emax [3] [%]
185 | 62.1 | Clc1cccc(C2CCN(CCCOc3ccc4scnc4c3)CC2)c1Cl [UNC9994] | –
– | – | CCCN1CCC[C@@H](c2cccc(O)c2)C1 [(-)-3-PPP] | 27.7 ± 7.5
